# Test results reported in paper PMC5612656, “In vitro and in vivo effects of 2,4 diaminoquinazoline inhibitors of the decapping scavenger enzyme DcpS: Context-specific modulation of SMN transcript levels” (PLoS ONE, 2017).
# Several values for one entry are separate records, joined by “and”; a condition that tells them apart may be missing. Equal values may be shown once.
# Columns and labels:
# [1] = Plasma drug levels after P4-P16 dosing; settings: FVB/N background, mouse, ip
# From the text: Personnel conducting studies followed the approved standard operating procedures for daily monitoring, dosing, weaning and euthanasia according to the approved study protocol. […] Line maintenance was maintained by interbreeding of the congenic line and every 4th generation mice were outbred to wild type FBV/N mice (jax # 001800) to reduce the possibility of new mutations within the line. Smn 2B mice were internally developed and maintained in the DiDonato laboratory. To generate the SMA mice used in this study an intercross between Smn 2B/2B and Smn +/- mice was performed. This generated litters in which 50% of the offspring were control (2B/+) and 50% SMA (2B/-). The day of birth was considered to be P0. If pups were born after 3pm, the following day was considered P0. At P1, pups were counted. If greater than 10 pups to a cage, pups were randomly chosen and moved to another cage to increase litter size, culled to reduce litter size or genotyped at P1 and culled at P2 to reduce litter size to 10 or fewer pups. Thereafter, no culling of pups was performed for drug studies. Individual mice were genotyped from DNA obtained from tail snips by polymerase chain reaction (PCR). All mice were weaned at P21 and separated into male and female cages. […] For the PK single dose studies a single ip injection was used. […] Body weights were recorded daily in the AM and dosing volume was adjusted accordingly. […]
# [2] = tested on: Renilla luciferase driven by the CMV promoter; assay: Reporter gene assay, CMV-driven Renilla luciferase; type: cell-based; settings: 24 hrs
# Method: The SMN2 reporter cell line was cultured in high-glucose DMEM supplemented with 10% (v/v) fetal bovine serum (FBS) and 1X Penicillin/Streptomycin. Reporter cells media was supplemented with hygromycin during maintenance. All cells were maintained at 37°C and […]. After seeding in 96-well white tissue culture plates at 25,000 per well, cells were incubated overnight before being exposed to different doses of compounds or DMSO for 24 hrs. The final DMSO concentration was kept constant at 0.1% (v/v). Firefly and renilla luciferase expression were assayed with DualGlo (Promega E2920) and measured on a PHERAstar FS microplate reader (BMG Labtech). Relative light units are normalized to DMSO control and expressed as a percentage.
# N2a cells miRNA = assay: miRNA RNA-Seq of N2a cells; type: cell-based, mouse; settings: approximately 700 detectable
# Method: Cells were then pelleted and lysed in RLT and the RNA was purified according to the protocol for the Qiagen miRNeasy kit to separate and enrich small RNA and large (>200 nt) fractions separately. […] RNA quality was also validated using qPCR for DcpS responsive genes. RNA fractions were used for cDNA library preparation which was performed using Truseq mRNA v2 reagents or TailorMix miRNA reagents (RS-122-2101 Illumina, San Diego CA, USA and TM302 […], Fremont CA, USA). Libraries were run on a Nextseq 500 (Illumina) using a paired-end run (2x75bp) generating ~60 million reads per library for the mRNA-seq and 1x75bp generating ~5 million reads per library for the miRNA-seq. […] The reads were first mapped to mouse miRNAs using Bowtie without allowing for mismatches. Instead of discarding the remaining reads, we explored the possibilities of RNA editing to include potential isomiRs. These reads were mapped to miRNAs that have at most 1 base mismatch, a substitution at the 5' or 3' ends, or have 1 or 2 extra bases at either ends. […] Reads mapping to protein coding exons and other small RNAs were removed prior to mapping to miRNAs. […] We merged the counts of reads identical to a miR and those mapping to isomeric forms as they are found to have identical/very similar functions. […] The counts were normalized and analyzed using EdgeR [19] packages in R-Bioconductor.
# 2B/- SMA mice = assay: Survival and body weight study in 2B/- SMA mice; type: in vivo, mouse
# [3] = cited from earlier work
# N2a cells = assay: RNA-Seq (polyA RNA) of N2a neuroblastoma cells; type: cell-based, mouse
# Method: Cells were then pelleted and lysed in RLT and the RNA was purified according to the protocol for the Qiagen miRNeasy kit to separate and enrich small RNA and large (>200 nt) fractions separately. […] RNA quality was also validated using qPCR for DcpS responsive genes. RNA fractions were used for cDNA library preparation which was performed using Truseq mRNA v2 reagents or TailorMix miRNA reagents (RS-122-2101 Illumina, San Diego CA, USA and TM302 Seqmatic, Fremont CA, USA). Libraries were run on a Nextseq 500 (Illumina) using a paired-end run (2x75bp) generating ~60 million reads per library for the mRNA-seq and 1x75bp generating ~5 million reads per library for the miRNA-seq. Demultiplexing, alignment, and differential analysis for the mRNA-seq were performed as described below. For the miRNA alignment, briefly the sequences between 16 and 35 nucleotides with average phred score ≥ 30 were retained for analysis. The reads were first mapped to mouse miRNAs using Bowtie without allowing for mismatches. Instead of discarding the remaining reads, we explored the possibilities of RNA editing to include potential isomiRs. These reads were mapped to miRNAs that have at most 1 base mismatch, a substitution at the 5’ or 3’ ends, or have 1 or 2 extra bases at either ends. Although 1 base mismatch would include 1 base substitution/deletion/addition at the ends, we made sure that 1 base mismatch was inside the miRNA and that all categories were mutually exclusive. Reads mapping to protein coding exons and other small RNAs were removed prior to mapping to miRNAs. Reads that uniquely mapped to miRNAs were considered and were profiled as: 1) identical to miRNAs, 2) perfect match to miRNAs but are of shorter length (no more than 5 bases short), 3) mapping to miRNAs with 1 substitution, 1 or 2 extra bases at 3’ and 5’ ends and with those with at most 1 mismatch (occurring inside the sequence and not on ends), 4) mapping to the precursor miRNA. Thus, steps 2–4 constitute “IsomiRs”-alternative forms of the mature miRNAs. We merged the counts of reads identical to a miR and those mapping to isomeric forms as they are found to have identical/very similar functions. The unaligned reads were mapped to the mouse genome and an internally developed database of rRNAs from bacteria, fungi, plant and eukaryotes to detect presence of contaminants. For differential analysis of miRNAs, only those with counts of ≥5 in at least 1/3rd samples (treatment vs control) were considered for analysis. The counts were normalized and analyzed using EdgeR [19] packages in R-Bioconductor. The P-values were corrected by FDR for multiple testing and miRNAs with FDR ≤15% and |FC|>1.5 were considered to be differentially expressed.
# The differentially regulated gene lists for both the spinal cord mRNA-seq and the N2a mRNA-seq results with a corrected P-value less than 0.05 were loaded into IPA and analyzed against the Ingenuity Knowledgebase, Ingenuity Expert Information, and with experimentally observed confidence.
# [4] = 1 μM, 24 hours, 18,409 detectable
structure (smiles),measurement,setting,value
Nc1nc(N)c2c(OCC3CCN(Cc4c(Cl)cccc4Cl)CC3)cccc2n1 [RG3039],concentration at 12 h,[1],4.24 ± 1.13 nM
same,effect on CMV-driven Renilla luciferase activity,[2],strong effect
same,miR species differentially regulated by RG3039 but not PF-06802336,N2a cells miRNA,no miR species
same,"effect on survival, RG3039 compared to PF-06738066",2B/- SMA mice; P < 0.05 by either test,slightly greater effect on survival than PF-06738066
same,effect on survival of SMA mice compared to vehicle-treated SMA mice,"2B/- SMA mice; b.i.d. i.p. P4-P20, RG3039 6 mg/kg, PF-06738066 10 mg/kg, P < 0.0001 Mantel-Cox or Gehan-Breslow-Wilcoxon",statistically significant beneficial effect on survival
same,"physicochemical character (lipophilicity, basicity)",[3],highly lipophilic and dibasic
same,tissue accumulation compared to plasma,[3],significantly accumulates in all tissues compared to plasma
same,differential expression of Smn and DcpS,"N2a cells; 1 μM, 24 hours",neither Smn nor DcpS itself were differentially expressed
same,down-regulated genes as share of differentially expressed genes,"N2a cells; 1 μM, 24 hours",41.7%
same,genes changed by less than one Log2 units (2-fold) in either direction,"N2a cells; 1 μM, 24 hours","1,489 genes"
same,"genes changed by less than one Log2 units (2-fold), share","N2a cells; 1 μM, 24 hours",70.9%
same,genes changed by more than 2 log2 units (4-fold) in either direction,"N2a cells; 1 μM, 24 hours",80 genes
same,"genes changed by more than 2 log2 units (4-fold), share","N2a cells; 1 μM, 24 hours",3.8%
same,genes down-regulated by compound (P < 0.05),"N2a cells; 1 μM, 24 hours",878 genes
same,"pathways significantly affected (P < 0.05), Ingenuity Pathway Analysis","N2a cells; 1 μM, 24 hours",53 pathways
same,proportion of detectable genes affected,"N2a cells; 1 μM, 24 hours",> 11% and 11.4%
same,upregulated genes as share of differentially expressed genes,"N2a cells; 1 μM, 24 hours",58.3%
same,down-regulated genes as percentage of total detectable genes,N2a cells; [4],4.77%
same,upregulated genes as percentage of total detectable genes,N2a cells; [4],6.66%
same,genes differentially expressed compared to DMSO (P < 0.05),"N2a cells; 1 μM, 24 hours, 18,409 detectable genes","2,104 genes"
same,"log2(fold-change), gene 1600020E01Rik","N2a cells; RG3039 vs DMSO, adjusted p-value 1.05E-117",2.871
same,"log2(fold-change), gene Krcc1","N2a cells; RG3039 vs DMSO, adjusted p-value 1.14E-85",-2.734
same,"log2(fold-change), gene Apba1","N2a cells; RG3039 vs DMSO, adjusted p-value 1.54E-112",-5.025
same,"log2(fold-change), gene Rnf157","N2a cells; RG3039 vs DMSO, adjusted p-value 3.09E-99",-3.057
same,"log2(fold-change), gene Stra6","N2a cells; RG3039 vs DMSO, adjusted p-value 4.32E-66",-2.291
same,Paqr8 log2 fold change,"N2a cells; decreased, P = 0.00251",0.657
same,Dpm3 log2 fold change,"N2a cells; increased, P = 0.000012",0.884
same,Pigw log2 fold change,"N2a cells; increased, P = 1.89 x 10^−30",1.54
